According to article PMC8850458, “The AUTOTAC chemical biology platform for targeted protein degradation via the autophagy-lysosome system” (Nature Communications, 2022):
Where “and” joins values, the source holds several entries; their conditions need not be identical. Equal entries are not always repeated.

System: ACHN cells
Assay: WST-based cell viability assay in ACHN cells
Details: for WST assay raw reading / WST assay viability relative to con = 100: ACHN, duplicates

O[C@H](CNCCOCCOCCOc1ccc(-c2c(-c3ccccc3)nn3c(C(F)(F)F)cc(C(F)(F)F)nc23)cc1)COc1ccc(OCc2ccccc2)c(OCCCc2ccccc2)c1 [PHTPP-1304]
higher cytotoxicity than p62-binding ligand or TBL (ACHN cells): ~ 5 fold | WST assay raw reading (0.01uM): 1.001 and 0.98 | WST assay viability relative to con = 100 (0.01uM): 98.3465 | WST assay raw reading (0.1uM): 1.009 and 1.004 | WST assay viability relative to con = 100 (0.1uM): 101.115 | WST assay raw reading (1uM): 0.961 and 0.962 | WST assay viability relative to con = 100 (1uM): 96.2699 | WST assay raw reading (10uM): 0.146 and 0.145 | WST assay viability relative to con = 100 (10uM): 2.019 | WST assay raw reading (50uM): 0.234 and 0.222 | WST assay viability relative to con = 100 (50uM): 10.9017 | WST assay raw reading (100uM): 0.256 and 0.273 | WST assay viability relative to con = 100 (100uM): 16.7852
